From patent US20250034185A1 (priority 2021, published 2025) come the findings set out here.

Data set [1] in a line: Pharmacokinetic study 1: P5P and P5P analog 16, IV and PO, rats. The format is in vivo. As to conditions: rat. Here is the method:
Pharmacokinetic study 1 was carried out (see Example 98: P5P analog 16i: Pharmacokinetic study 1) to assess if P5P analog 16i was able to be converted to P5P and increase plasma P5P, to assess if P5P analog 16i was orally available, and to compare the ability of PO P5P analog 16i and PO P5P to increase plasma P5P.
In order to isolate the effects of the administered P5P analog 16i on pyridoxine (PL) and P5P (PLP) levels, the basal levels of both PL and P5P were subtracted from the measured concentrations. Baseline subtraction was accomplished by subtracting pre-dose concentrations of either PL or P5P from the subsequent values in the time course.
Formulation—Both P5P (pyridoxal-5-phosphate) and P5P analog 16 were formulated in phosphate buffered saline (PBS) as homogenous solutions on the day of dosing.
(§1) Animals and group—13 CD ♂ rats with an approx. weigh of ˜250 g were used. Animals were split into 4 groups+1 extra (n=3 for each group). Animals were allowed a 5-day acclimatization period in animal facility. The animal room environment was controlled (temperature 22 f 0.2° C.; relative humidity 55 f 25%; 12 hours light/dark cycle, and 12 air changes per hour). A standard certified commercial rodent chow was provided to the animals ad libitum. Procedures involving the care and use of animals in this study were reviewed and approved by the Institutional Animal Care and Use Committee (IACUC) prior to conduct. One day prior to dosing on D-1, Rats were divided in 4 groups (Table 7). Rats in Group 3 and 4 were fasted overnight (12-14 hours) with access to water.
On day 0, animals were identified, weighted, and dosed by intravenous (IV) injection or oral gavage (PO) as described in Table 7. Food tray were returned to Group 3 and 4, 2 hrs post dosing.
(§2) Blood was collected at indicated time points below for all groups: Pre-dose, 5′, 15′, 30′, 1 h, 2 h, 4 h, 6 h, 8 h, 24 h.
(§3) About 150 μL of blood was collected at indicated time points below using K2EDTA tubes. Blood was kept on ice until centrifugation at 4° C. at 6000 RCF for 10 min. Plasma was collected and kept on dry ice until transferred at −80° C.

A short description of data set [2]: Pharmacokinetic study 3: P5P analog 16vi and Compound II.I., IV and PO, rats. The class given is in vivo. The note with it: rat. On the procedure: […] (Example 100: P5P analog 16vi and compound II.I.: Pharmacokinetic study 3) to assess the effect of a P5P analog not encompassed by the compound of Formula I (Compound II.I.), amino acid modification (P5P analog 16vi) and compounds of formula 16iii, 16i and a racemic mixture of 16i.
In order to isolate the effects of the administered Compound II.I. and P5P analog 16vi on pyridoxine (PL) and P5P levels, the basal levels of both PL and P5P were subtracted from the measured concentrations. Baseline subtraction was accomplished by subtracting pre-dose concentrations of either PL or P5P from the subsequent values in the time course.
Formulation—Compound II.I. was formulated in 0.9% saline while P5P analog 16vi was formulated in 40% hydroxypropyl-β-cyclodextrin in water as a homogenous solution on the day of dosing.
as §1, with “9).” for “7).”
On day 0, animals were identified, weighted, and dosed by intravenous (IV) injection or oral gavage (PO) as described in Table 9. Food tray were returned to Group 3 and 4, 2 hrs post dosing.
as §2
About 150 μL of blood was collected at indicated time points below using K2EDTA tubes. Blood was kept on ice until centrifugation at 4° C. at 6000 RCF for 10 min. […]

Data set [3] is described as follows: Pharmacokinetic study 2: P5P analogs 16 and 16v, IV and PO, rats. The format is in vivo. As to conditions: rat. Here is the method: Pharmacokinetic study 2 was carried out (Example 99: P5P analog 16i: Pharmacokinetic study 2) to assess the effect of the P5P analog 16v compared to P5P analog 16i.
In order to isolate the effects of the administered P5P analogs 16i and 16v on pyridoxine (PL) and P5P levels, the basal levels of both PL and P5P were subtracted from the measured concentrations. Baseline subtraction was accomplished by subtracting pre-dose concentrations of either PL or P5P from the subsequent values in the time course.
Formulation—Both P5P analog 16 and P5P analog 16v were formulated in 40% hydroxypropyl-β-cyclodextrin in water as homogenous solutions on the day of dosing.
as §1, with “8).” for “7).”
On day 0, animals were identified, weighted, and dosed by intravenous (IV) injection or oral gavage (PO) as described in Table 8. Food tray were returned to Group 3 and 4, 2 hrs post dosing.
as §2, §3

The nature of data set [4]: Pharmacokinetic study 4: SP isomer, RP isomer and D-amino acid prodrug, IV and PO, rats. The class given is in vivo. The note with it: rat.
Source text: The goal of the study was to compare the pharmacokinetic (PK) profiles of the S-isomer (16i) and the R-isomer (16iii) at the phosphorus center, and to assess the effect of using the D-amino acid (16i with SP and RP isomers) on PK profile.
In order to isolate the effects of the administered agents on PL and PLP levels, the basal levels of both PL and PLP subtracted from the measured concentrations. Baseline subtraction was accomplished by subtracting pre-dose concentrations of either PL or PLP from the subsequent values in the time course.
Formulation—Prodrugs 16i (SP isomer), 16i (RP isomer) and 16i′ (16i with D-amino acid racemate) were formulated in phosphate buffered saline (PBS) as a homogenous solution on the day of dosing.
(§4) Animals and group—19 CD ♂ rats with an approx. weigh of ˜250 g were used. Animals were split into 6 groups+1 extra (n=3 for each group). Animals were allowed a 5-day acclimatization period in animal facility. The animal room environment was controlled (temperature 22 f 0.2° C.; relative humidity 55 f 25%; 12 hours light/dark cycle, and 12 air changes per hour). A standard certified commercial rodent chow was provided to the animals ad libitum. Procedures involving the care and use of animals in this study were reviewed and approved by the Institutional Animal Care and Use Committee (IACUC) prior to conduct. One day prior to dosing on D-1, Rats were divided in 6 groups (Table 1). Animals were identified and bled for pre-dose blood. Rats in Group 4, 5 and 6 were fasted overnight (12-14 hours) with access of water.
On day 0, animals were weighted, and dosed by IV injection or by oral gavage as described in Table 10. Food tray were returned to Group 4, 5 and 6 two hours post dosing.
as §2, §3

The nature of data set [5]: Single ascending dose study of P5P analog 16, oral, rats. The format is in vivo. As to conditions: single PO dose 10, 30, 100, 300 mg/kg, rat, observed to 24 hrs. On the procedure: Single ascending dose studies were carried out (Example 97: P5P analog 16i: single ascending dose study) to assess the maximum tolerability of a P5P analog (compound of formula 16i) in rats under 4 different doses under one single administration via Per Os (P.O.—oral) route, and to inform the linearity of pharmacokinetics (PK) with multiple dosing.
In order to isolate the effects of the administered compound of formula 16i on pyridoxine (PL) and P5P (PLP) levels, the basal levels of both PL and P5P were subtracted from the measured concentrations. Baseline subtraction was accomplished by subtracting pre-dose concentrations of either PL or P5P from the subsequent values in the time course.
Formulation—P5P analog 16 was formulated in 1% methylcellulose in water on the day of dosing.
as §4, with “group—17” for “group—19”, “4” for “6”, “(n=4” for “(n=3”, “6).” for “1).”, “all groups” for “Group 4, 5 and 6”
On day 0, animals in groups 1-2-3 were weighed, and dosed by oral gavage as described in Table 6. Each remaining dosing solutions were stirred (or slightly vortexed), a 50 ul sample were collected and placed in separate tube and both vials immediately frozen on dry ice. Food tray were returned to animals two hours post dosing.
Cage-side observation were done upon dosing, at the end of day, and 24 hrs post dosing (record adverse effect if observed). Animal were weighed again at 24 hrs post dosing.
Blood was collected at indicated time points for all groups at: Pre-dose, 15′, 30′, 1 h, 2 h, 4 h, 6 h, 8 h, 24 h.
as §3

Another data set has as its system plasma enzymes. As to conditions: Sprague Dawley, rat.

Molecules are shown by their SMILES. “Also recorded” adds a separate entry of the source.

`Cc1ncc(COP(=O)(O)O)c(C=O)c1O` [Compound P5P, pyridoxal-5-phosphate]: in data set [1] (IV 1 mg/kg), the “overall exposure of P5P” value is listed as “approximately 2200 ng/ml*hr”, the “time after which the dosed compound is no longer left/detectable in the plasma” value was 4 h and the “total exposure of pyridoxal (above baseline values)” value is given as 770 ng/ml*hr. In addition, in data set [1] (IV 1 mg/kg, PBS), the “plasma P5P Cmax” value was 3373 ng/mL. Moreover, in data set [1] (PO 10 mg/kg vs IV 1 mg/kg), the “oral bioavailability of P5P” value worked out at 0%. In data set [1] (oral gavage 10 mg/kg), the “plasma pyridoxal Cmax” value is 3668 ng/mL. In data set [1] (oral gavage 10 mg/kg, 10 mg/kg), the “P5P detected in the plasma over the 24-hour assessment period” value is given as “no detectable P5P; also recorded: not detected”.
On to `Cc1ncc(COP(=O)(N[C@@H](Cc2ccccc2)C(=O)OC(C)C)Oc2ccccc2)c(C=O)c1O` (stereo partly drawn) [Compound 16vi, (2S)-Isopropyl 2-(((4-formyl-5-hydroxy-6-methylpyridin-3-yl)methoxy)(phenoxy)phosphorylamino)-3-phenylpropanoate], for which the “oral bioavailability (detection in plasma after oral dosing)” value in data set [2] (dosed orally) is listed as “did not demonstrate significant oral bioavailability; also recorded: nor P5P were detected in the plasma at any significant levels”. In addition, the peak concentration (Cmax) in data set [2] (male, CD, plasma, po, orally 10 mg/kg, read-out: dosed compound Cmax in plasma) came out at 1650 ng/mL. In data set [2] (orally 10 mg/kg), this molecule showed a dosed compound exposure of 1592 ng/ml*hr.
In the case of `CCC(CC)COC(=O)[C@H](C)NP(=O)(OCc1cnc(C)c(O)c1C=O)Oc1ccccc1` (stereo partly drawn) [Compound 16v, (2S)-2-Ethylbutyl 2-(((4-formyl-5-hydroxy-6-methylpyridin-3-yl)methoxy)(phenoxy)phosphorylamino)propanoate], the “oral availability of the prodrug (crosses gastrointestinal wall, detectable in circulation)” value in data set [3] (dosed orally) was “orally bioavailable”. Also, in data set [3] (male, CD, plasma, IV 1 mg/kg, read-out: prodrug (P5P analog) time of Cmax), the Tmax was determined as 6 min. Further, in data set [3] (oral dosing), the “plasma levels of P5P after oral dosing compared to P5P analog 16i” value is recorded as “slightly greater amounts”.
For `Cc1ncc(COP(=O)(N[C@H](C)C(=O)OC(C)C)Oc2ccccc2)c(C=O)c1O` (mixture of isomers) [Compound 16iii, (2R)-Isopropyl 2-(((4-formyl-5-hydroxy-6-methylpyridin-3-yl)methoxy)(phenoxy)phosphorylamino)propanoate], in data set [4], the “PLP exposure, racemic D-amino acid prodrug compared with L-amino acid prodrug” value was “reduced PLP exposure”. The “conversion to PLP in the plasma” value in data set [4] (IV (and PO)) is recorded as “did not convert well to PLP”.
Consider `Cc1ncc(COP(=O)(N[C@@H](C)C(=O)OC(C)C)Oc2ccccc2)c(C=O)c1O` (mixture of isomers) [Compound 16, (2S)-Isopropyl 2-(((4-formyl-5-hydroxy-6-methylpyridin-3-yl)methoxy)(phenoxy)phosphorylamino)propanoate], for which the “time after which the dosed compound is no longer left/detectable in the plasma” value in data set [1] (IV 1 mg/kg) turned out to be 6 h. Further, in data set [1] (given PO, FIGS. 7 a-d), the “ability to increase plasma PLP compared to PLP itself” value is given as “improved ability”. Moreover, the “prodrug (P5P analog) time of peak” value in data set [1] (oral 10 mg/kg) was determined as 0.5 hours. For the same molecule, in data set [5], the “adverse reactions / clinical signs” value was “no adverse reactions”.
As to `Cc1ncc(COP(=O)(N[C@@H](C)C(=O)OC(C)C)Oc2ccccc2)c(CN)c1O` (stereo partly drawn) [Compound 14, (2S)-Isopropyl 2-(((4-(aminomethyl)-5-hydroxy-6-methylpyridin-3-yl)methoxy)(phenoxy)phosphorylamino)propanoate], in the data set on plasma enzymes, the P5P formed amounted to 0 µM and the “relative P5P formed” value is 0.0%.

As usually defined, the Cmax is the peak of the concentration-time curve.
